From US6423307B1, “Bioadhesive complexes of polycarbophil and azole antifungal or antiprotozoal drugs” (Farmigea S.p.A., priority 1996, dated 2002)

How the values were obtained:
[1] = system: Candida albicans, strain ATCC 48867; assay: Experimental intravaginal infection by Candida albicans in a murine model; assay type: in vivo, CBA/J (H-2^k) mice; settings: for Not improved (% of mice): above 990 colonies; for Not improved (number of mice): vaginal wash 4 hours after dosing, above 990 colonies in 50 μl PBS; for Improved (% of mice) / Improved (number of mice): 100 to 990 colonies in 50 μl PBS; for Cured (number of mice): all cultures negative; for Sensibly improved (% of mice) / Sensibly improved (number of mice): less than 100 colonies in 50 μl PBS
Excerpt: In the frame of the microbiological experimentation of the products of the invention, the in vivo pharmacological activity of the econazole-polycarbophil complex has also been tested, in comparison with that of econazole (base), in the treatment of an experimental intravaginal infection by Candida albicans, reproduced in a murine model.
Vaginal candidiasis in rodents may be induced only in pseudoestrus conditions (P. L. Fidel, M. E. Lynch, J. D. Sobel, Infection and Immunity, 61 (5), 1993, 1990). For this reason, 72 hours before vaginal inoculation, the CBA/J (H-2^k) mice, described as sensible to such infection (P. L. Fidel, J. L. Cutright, J. D. Sobel, Infection and Immunity, 63 (10), 1995, 4191) were treated with 0.5 mg of estradiol valerate, dissolved in sesame oil, administered by subcutaneous route. The estrogen administration was repeated weekly until completion of the study. Blastoconoids (5×10^5) of Candida albicans, strain ATCC 48867, were inoculated in the vagina of mice previously treated with estrogens. After one week from the inoculation, the infection degree was evaluated by means of vaginal washing and subsequent count of the colony-forming units (CFU) on plates of Sabouraud agar, to which chloramphenicol and gentamicin had been added.
The infected animals were divided into three test groups, each one of which underwent a therapeutic treatment for five subsequent days (from day 1 to day 5). Each therapeutic treatment respectively consisted of: 1) econazole (base) (0.5 wt. % and 1 wt. %); 2) econazole-polycarbophil complex (0.5 wt. % and 1 wt. % calculated as econazole); 3) excipients (control group).
The infection degree was checked before starting the treatment and at the end thereof (day 6). […] The statistical evaluation of the results was made by means of the χ^2 test.

C. albicans ATCC 48867 [2] = assay: Antifungal assay in solid medium (inhibition halo); assay type: cell-based, Candida albicans
Protocol: (§1) Two standard American Type Culture Collection (ATCC) strains were used for the assays, i.e. those deposited under the numbers ATCC 48867 and ATCC 23866. Econazole (base) and the econazole-polycarbophil complex were prepared by using different concentrations of the active ingredient depending on the assay requirements, as well as different solvents (i.e. propylene glycol, DMSO), with or without a thickening excipient substance (i.e. hydroxypropylcellulose). The activity of each solvent was also tested, as well as the activity of the excipient and that of polycarbophil alone.
The antifungal activity has been evaluated in an assay in solid medium using Petri dishes containing Sabouraud medium with 2% agar. The dishes were uniformly seeded, with the aid of a sterile pad, with an aqueous suspension containing C. albicans at a density of 2 McFarland. By means of an instrument of 6 mm diameter, incisions were made on the dishes in order to obtain regular cavities in the agar thickness. Each one of the substances under test was placed in one of these cavities, in amounts ranging from 50 to 100 μl. The plates were then incubated for 24 h in a thermostat at 37° C. The antifungal activity was evaluated by measuring the diameter of the inhibition of C. albicans growth around each cavity.
The antifungal assay in solid medium turned out to be a highly sensitive and reproducible assay also for the products under test. At least five separate experiments for evaluating the inhibition halos were carried our for each one of the two different strains and for each one of the compounds examined. Similar results were obtained with each compound in all of the experiments performed.

C. albicans ATCC 48867 [3] = assay: Susceptibility test in microplate (liquid medium), MIC; assay type: cell-based, Candida albicans; settings: 48 h at 37° C.
Protocol: as §1
(§2) Stock solutions of econazole (base) and of the econazole-polycarbophil complex were obtained by dissolving the compounds in DMSO at a concentration of 1.5 mg/ml. Two serial 10-fold dilutions in DMSO were made starting from the stock solutions, up to a concentration of 15 μg/ml. From this concentration each compound was subsequently diluted in Yeast Nitrogen Base medium, to which 0.5% glucose and 0.05% bovine albumin had been added. The mixtures were then placed, at different concentrations, in microplate wells (90 μl volume each). 10 μl of a suspension of C. albicans obtained by diluting by {fraction (1/10+L )} a preparation having a turbidity of 2 McFarland were then inoculated in each well. […]

C. albicans ATCC 23866 = assay: as above; assay type: cell-based, Candida albicans; settings: 48 h at 37° C.
Protocol: as §1, §2

[4] = 0.5 wt. % econazole, 5 days, checked day 6

Q: With `Clc1ccc(COC(Cn2ccnc2)c2ccc(Cl)cc2Cl)cc1` (stereo not shown) [econazole (base), 1-{2-[(4-chlorophenyl)methoxy]-2-(2,4-dichlorophenyl)ethyl}-1H-imidazole] as the compound, how does the “Not improved (% of mice)” value [1, 4] read?
A: 11.11%

Q: What about the “Not improved (number of mice)” value [1, 4] of the same compound?
A: 1

Q: What about the “Improved (% of mice)” value ([1]; 0.5 wt. % econazole) of the same compound?
A: 66.66%

Q: And the “Improved (number of mice)” value ([1]; 0.5 wt. % econazole)?
A: 6

Q: And the “Cured (number of mice)” value ([1]; 0.5 wt. % econazole)?
A: 0

Q: And the “Sensibly improved (% of mice)” value ([1]; 0.5 wt. % econazole)?
A: 22.22%

Q: What about the “Sensibly improved (number of mice)” value ([1]; 0.5 wt. % econazole) of the same compound?
A: 2

Q: What about the “Not improved (number of mice)” value ([1]; 1 wt. % econazole, 5 days, checked day 6) of the same compound?
A: 3

Q: And the “Improved (% of mice)” value ([1]; 1 wt. % econazole)?
A: 56.25%

Q: What about the “Improved (number of mice)” value ([1]; 1 wt. % econazole) of the same compound?
A: 9

Q: What about the “Not improved (% of mice)” value ([1]; 1 wt. % econazole) of the same compound?
A: 18.75%

Q: What about the “Cured (number of mice)” value ([1]; 1 wt. % econazole) of the same compound?
A: 0

Q: What about the “Sensibly improved (% of mice)” value ([1]; 1 wt. % econazole) of the same compound?
A: 25.00%

Q: What about the “Sensibly improved (number of mice)” value ([1]; 1 wt. % econazole) of the same compound?
A: 4

Q: What about the “cured animals added to sensibly cured animals (% of mice)” value ([1]; 1 wt. % econazole, p=0.0131 between groups) of the same compound?
A: 25%

Q: And the “Diameter of inhibition halo” value (C. albicans ATCC 48867 [2]; Concentration 3 × 10^−2 %, preparation with HPC)?
A: 31.2 ± 0.84 mm

Q: What about the “Diameter of inhibition halo” value (C. albicans ATCC 48867 [2]; Concentration 3 × 10^−2 %, preparation without HPC) of the same compound?
A: 31.2 ± 0.84 mm

Q: What about the “Diameter of inhibition halo” value (C. albicans ATCC 48867 [2]; Concentration 3 × 10^−3 %, preparation with HPC) of the same compound?
A: 29.4 ± 0.89 mm

Q: What about the “Diameter of inhibition halo” value (C. albicans ATCC 48867 [2]; Concentration 3 × 10^−3 %, preparation without HPC) of the same compound?
A: 28.6 ± 0.55 mm

Q: And the “Diameter of inhibition halo” value (C. albicans ATCC 48867 [2]; Concentration 3 × 10^−4 %, preparation with HPC)?
A: 20.8 ± 1.30 mm

Q: What about the “Diameter of inhibition halo” value (C. albicans ATCC 48867 [2]; Concentration 3 × 10^−4 %, preparation without HPC) of the same compound?
A: 20.2 ± 1.09 mm

Q: What about the “Diameter of inhibition halo” value (C. albicans ATCC 48867 [2]; Concentration 3 × 10^−5 %, preparation with HPC) of the same compound?
A: 13.0 ± 1.00 mm

Q: And the “Diameter of inhibition halo” value (C. albicans ATCC 48867 [2]; Concentration 3 × 10^−5 %, preparation without HPC)?
A: 12.4 ± 0.58 mm

Q: What about the Minimal inhibitory concentration (C. albicans ATCC 48867 [3]) of the same compound?
A: 5.6 ± 0.3 μg/ml of econazole

Q: What about the Minimal inhibitory concentration (C. albicans ATCC 23866) of the same compound?
A: 5.6 ± 0.4 μg/ml of econazole
